Results taken from patent EP3294317B1, “ENHANCED ANTIBIOTIC COMPOSITION” (Universitat Autònoma de Barcelona, priority 2015, dated 2016).

Assays:
[1] = test system: Pseudomonas aeruginosa PAO1; experiment: Colistin broth microdilution MIC with potentiator compounds (Example 1); assay type: cell-based; details: P. aeruginosa PAO1; colistin without potentiator
[2] = test system: Pseudomonas aeruginosa ATCC 27853; experiment: as above; assay type: cell-based; details: P. aeruginosa ATCC 27853; colistin without potentiator
[3] = test system: Salmonella enterica subsp. enterica ATCC 14028; experiment: as above; assay type: cell-based; details: S. enterica ATCC 14028; colistin without potentiator
[4] = test system: Stenotrophomonas maltophilia ATCC 13637; experiment: as above; assay type: cell-based; details: S. maltophilia ATCC 13637; colistin without potentiator
S. maltophilia OC323 = experiment: Colistin broth microdilution MIC with compound of formula I prepared in methanol or DMSO (Example 6); assay type: cell-based, Stenotrophomonas maltophilia; details: microdilution test with MHB, colistin without potentiator
Procedure: (§1) The potentiator effect of the compound of the invention in a new formulation was tested by using colistin sulphate as antibiotic in combination with the enhancer compound of formula I in front of resistant clinical isolates. […]
(§2) Tests were performed to determine the potentiator effect of the compound of the invention with two colistin resistant S. maltophilia strains as shown in Table 9. S. maltophilia K279a is a reference clinical strain. The origin of clinical strain OC323 together with K279a has been described previously (Huedo et al., Two Different rpf Clusters Distributed among a Population of Stenotrophomonas maltophilia Clinical Strains Display Differential Diffusible Signal Factor Production and Virulence Regulation, J. Bacteriol., 2014, 196, 2431-2442).
(§3) Selected compound of formula I was first dissolved in 100% of Methanol (HPLC Gradient Grade CHROMASOLV. Sigma, 34885-1L-R) to 10 mM. The compound was fairly soluble in methanol up to 10 mM and required vigorous vortex.
(§4) […] MICs were determined as described in the Example 1.
(§5) Strains colistin minimal inhibitory concentration (MIC), expressed in µg/mL, and the fold increase in bacterial susceptibility to colistin when combined with the potentiator compound previously dissolved in methanol ([…]) are shown in Table 9: TABLE 9

S. maltophilia K279a = experiment: as above; assay type: cell-based, Stenotrophomonas maltophilia; details: microdilution test with MHB, colistin without potentiator
Procedure: as §1, §2, §3, §4, §5

[5] = test system: Acinetobacter baumannii ATCC 15308; experiment: Colistin broth microdilution MIC with potentiator compounds (Example 1); assay type: cell-based; details: A. baumannii ATCC 15308; colistin without potentiator
[6] = test system: Escherichia coli ATCC 25922; experiment: as above; assay type: cell-based; details: E. coli ATCC 25922; colistin without potentiator
A. baumannii 6963 = experiment: Colistin broth microdilution MIC with potentiator compounds, resistant clinical isolates (Example 3); assay type: cell-based, Acinetobacter baumannii; details: colistin without potentiator
Procedure: (§6) The potentiator effect of the compound of the invention and other compounds disclosed herein was tested using colistin sulfate as antibiotic and in combination with the enhancer compounds in front of resistant clinical isolates.
(§7) Tests were performed to determine the potentiator effect of the compound of the invention and other compounds disclosed herein with multidrug-resistant S. maltophilia and A. baumannii clinical strains as shown in Table 5: TABLE 5
(§8) For this experiment the potentiator compound was added to a colistin broth microdilution assay at a final concentration of 0.1mM. MICs were determined as described in the Example 1.
(§9) Colistin minimal inhibitory concentration (MIC), expressed in µg/mL, and the fold increase in bacterial susceptibility to colistin when combined with the potentiator compound (expressed as MIC in the presence of 1.0% DMSO / MIC in the presence of 0.1 mM of each potentiator compound and 1.0% DMSO) are shown in Table 6: […]

A. baumannii 6799 = experiment: as above; assay type: cell-based, Acinetobacter baumannii; details: colistin without potentiator
Procedure: as §6, §7, §8, §9

[7] = test system: Escherichia coli ATCC 9637; experiment: Colistin broth microdilution MIC with potentiator compounds (Example 1); assay type: cell-based; details: E. coli ATCC 9637; colistin without potentiator
[8] = test system: Enterobacter aerogenes ATCC 13048; experiment: as above; assay type: cell-based; details: E. aerogenes ATCC 13048; colistin without potentiator
S. maltophilia D457 = experiment: Colistin broth microdilution MIC with potentiator compounds, resistant clinical isolates (Example 3); assay type: cell-based, Stenotrophomonas maltophilia; details: colistin without potentiator
Procedure: as §6, §7, §8, §9

S. maltophilia 53149 = experiment: as above; assay type: cell-based, Stenotrophomonas maltophilia; details: colistin without potentiator
Procedure: as §6, §7, §8, §9

S. maltophilia 257 = experiment: as above; assay type: cell-based, Stenotrophomonas maltophilia; details: colistin without potentiator
Procedure: as §6, §7, §8, §9

S. maltophilia M30 = experiment: as above; assay type: cell-based, Stenotrophomonas maltophilia; details: colistin without potentiator
Procedure: as §6, §7, §8, §9

S. maltophilia 197 = experiment: as above; assay type: cell-based, Stenotrophomonas maltophilia; details: colistin without potentiator
Procedure: as §6, §7, §8, §9

For colistin [reference compound], the “Colistin MIC” value [1] was 1 µg/mL, the “Colistin MIC” value [2] was 0.5 µg/mL and the “Colistin MIC” value [3] was 2 µg/mL. For the same substance, the “Colistin MIC” value [4] was 8 µg/mL, the MIC to colistin (S. maltophilia OC323) was “S. maltophilia OC323 (32 µg/mL)” and the MIC to colistin (S. maltophilia K279a) was “S. maltophilia K279a (16 µg/mL)”. For the same substance, the “Colistin MIC” value [5] was 0.5 µg/mL, the “Colistin MIC” value [6] was 1 µg/mL and the “Colistin MIC” value (A. baumannii 6963) was 0.125 µg/mL. For the same substance, the “Colistin MIC” value (A. baumannii 6799) was 0.125 µg/mL, the “Colistin MIC” value [7] was 0.5 µg/mL and the “Colistin MIC” value [8] was 1 µg/mL. The “Colistin MIC” value (S. maltophilia D457) was 32 µg/mL, the “Colistin MIC” value (S. maltophilia 53149) was 32 µg/mL and the “Colistin MIC” value (S. maltophilia 257) was 64 µg/mL. The “Colistin MIC” value (S. maltophilia M30) was 32 µg/mL and the “Colistin MIC” value (S. maltophilia 197) was 32 µg/mL.
